Results published in ChEMBL document CHEMBL1949654, “Discovery of a Potent Pyrazolopyridine Series of γ-Secretase Modulators” (ACS Med Chem Lett, 2011).
Activity calls are given as the source filed them. No cut-off for these calls is given here.

Assays:
[1] = Selectivity ratio of IC50 for gamma secretase-mediated amyloid beta total production to IC50 for gamma secretase-mediated amyloid beta (1 to 42) production
[2] = system: Rattus norvegicus; test: Antialzheimer activity in CD rat assessed as reduction in amyloid beta total CSF level at 30 mg/kg, po measured after 3 hrs; format: functional, organism-based; parameters: dose 30 mg/kg
[3] = system: Rattus norvegicus; test: Antialzheimer activity in CD rat assessed as reduction in amyloid beta (1 to 40) CSF level at 30 mg/kg, po measured after 3 hrs; format: functional, organism-based; parameters: dose 30 mg/kg
[4] = Inhibition of gamma secretase-mediated amyloid beta (1 to 42) production expressed in HEK293 cells overexpressing APP Swedish mutant after 5 hrs by immunoassay; format: cell-based
[5] = species: Canis lupus familiaris; test: Inhibition of dog gamma-secretase assessed as reduction in reduction in Hes-1 expression up to 20 uM
[6] = species: Mus musculus; test: Inhibition of mouse gamma-secretase assessed as reduction in reduction in Hes-1 expression up to 20 uM
[7] = system: HEK293; test: Inhibition of gamma-secretase expressed in HEK293 cells assessed as reduction in Notch cleavage up to 20 uM; format: cell-based
[8] = Drug uptake in CD rat brain at 30 mg/kg, po measured after 3 hrs; format: ADME, organism-based; parameters: dose 30 mg/kg, route oral; settings: read-out: Drug uptake
[9] = system: Rattus norvegicus; test: Antialzheimer activity in CD rat assessed as reduction in amyloid beta (1 to 42) CSF level at 30 mg/kg, po measured after 3 hrs; format: functional; parameters: scale not given: the % may be the effect or the level left
[10] = Drug uptake in CD rat plasma at 30 mg/kg, po measured after 3 hrs; format: ADME, organism-based; parameters: dose 30 mg/kg, route oral
[11] = system: P-glycoprotein; test: Drug transport assessed as P-glycoprotein-mediated basolateral to apical permeability; format: ADME; settings: not told; read-out: permeability
[12] = system: P-glycoprotein; test: Drug transport assessed as P-glycoprotein-mediated efflux ratio of compound transport from basolateral to apical side over apical to basolateral side; format: ADME; settings: not told
[13] = system: P-glycoprotein; test: Drug transport assessed as P-glycoprotein-mediated apical to basolateral permeability; format: ADME; settings: not told; read-out: permeability

| SMILES | Ratio IC50 [1] | inhibition [2] | inhibition [3] | IC50 [4] [nM] | inhibition [5] | inhibition [6] | inhibition [7] | concentration at 3 h [8] [nM] | Activity [9] | concentration at 3 h [10] [nM] | Papp B→A [11] [×10⁻⁶ cm/s] | efflux ratio [12] | Papp A→B [13] [×10⁻⁶ cm/s] |
| --- | --- | --- | --- | --- | --- | --- | --- | --- | --- | --- | --- | --- | --- |
| COc1cc(-c2nnc3n([C@@H](C)c4ccc(F)cc4)cc(C#N)cc2-3)ccc1-n1cnc(C)c1 | 60 | inactive | inactive | 172 | inactive | inactive | inactive | – | – | – | – | – | – |
| COc1cc(-c2nnc3n([C@@H](C)c4cc(F)ccc4F)cc(Cl)cc2-3)ccc1-n1cnc(C)c1 | 151 | inactive | inactive | 71 | inactive | inactive | inactive | 740 | 24% | 2520 | – | – | – |
| COc1cc(-c2nnc3n([C@@H](CO)c4ccc(F)cc4)cc(Cl)cc2-3)ccc1-n1cnc(C)c1 | 119 | inactive | inactive | 168 | inactive | inactive | inactive | 100 | inactive | 2150 | – | – | – |
| COc1cc(-c2nnc3n([C@@H](C)c4ccc(F)cc4)cc(C(F)F)cc2-3)ccc1-n1cnc(C)c1 | 52 | inactive | inactive | 123 | inactive | inactive | inactive | – | inactive | – | – | – | – |
| COc1cc(-c2nnc3n([C@@H](C)c4ccc(F)cc4)cccc2-3)ccc1-n1cnc(C)c1 | 205 | inactive | inactive | 97 | inactive | inactive | inactive | 170 | inactive | 2880 | 31.4 | 33.8 | 0.9 |
| COc1cc(-c2nnc3n([C@H](C)c4ccc(F)cc4)cccc2-3)ccc1-n1cnc(C)c1 | 60 | inactive | inactive | 332 | inactive | inactive | inactive | – | – | – | – | – | – |
| COc1cc(-c2nnc3n(C(CCS(C)(=O)=O)c4ccc(F)cc4)cc(Cl)cc2-3)ccc1-n1cnc(C)c1 (stereo unspecified) | 63 | inactive | inactive | 316 | inactive | inactive | inactive | – | – | – | – | – | – |
| COc1cc(-c2nnc3n([C@@H](C)c4ccc(F)cc4)cc(C)cc2-3)ccc1-n1cnc(C)c1 | 161 | inactive | inactive | 85 | inactive | inactive | inactive | – | inactive | – | 41.2 | 8.5 | 4.8 |
| COc1cc(-c2nnc3n([C@@H](C)c4ccc(F)cc4)cc(Cl)cc2-3)ccc1-n1cnc(C)c1 | 288 | inactive | inactive | 70 | inactive | inactive | inactive | 920 | 32% | 2740 | – | – | – |
| COc1cc(-c2nnc3n([C@@H](C)c4ccc(F)c(F)c4)cc(Cl)cc2-3)ccc1-n1cnc(C)c1 | 301 | inactive | inactive | 66 | inactive | inactive | inactive | 880 | 27% | 6510 | – | – | – |
| COc1cc(-c2nnc3n([C@@H](C)c4cc(F)c(F)c(F)c4)cc(Cl)cc2-3)ccc1-n1cnc(C)c1 | 186 | inactive | inactive | 107 | inactive | inactive | inactive | 1220 | 45% | 5020 | – | – | – |
| COc1cc(-c2nnc3n(C(C)c4ccc(F)cc4)cccc2-3)ccc1-n1cnc(C)c1 (racemic) | 87 | inactive | inactive | 231 | inactive | inactive | inactive | – | – | – | – | – | – |
| COc1cc(-c2nnc3n([C@@H](C)c4cc(F)cc(F)c4)cc(Cl)cc2-3)ccc1-n1cnc(C)c1 | 6 | inactive | inactive | 38 | inactive | inactive | inactive | – | – | – | – | – | – |
| CC[C@@H](c1cc(F)c(F)c(F)c1)n1cc(Cl)cc2c(-c3ccc(-n4cnc(C)c4)c(OC)c3)nnc1-2 | 463 | inactive | inactive | 43 | inactive | inactive | inactive | 1610 | 30% | 7230 | – | – | – |
| CC[C@@H](c1ccc(F)cc1)n1cccc2c(-c3ccc(-n4cnc(C)c4)c(OC)c3)nnc1-2 | 42 | inactive | inactive | 140 | inactive | inactive | inactive | – | – | – | – | – | – |
| COc1cc(-c2nnc3n([C@@H](C)c4ccc(F)cc4)cc(C(C)(F)F)cc2-3)ccc1-n1cnc(C)c1 | 66 | inactive | inactive | 143 | inactive | inactive | inactive | – | inactive | 30 | – | – | – |
| COc1cc(-c2nnc3n([C@@H](C)c4ccc(F)cc4)cc(CF)cc2-3)ccc1-n1cnc(C)c1 | 32 | inactive | inactive | 634 | inactive | inactive | inactive | – | – | – | – | – | – |
| COc1cc(-c2nnc3n([C@@H](C)c4cc(F)cc(F)c4)cccc2-3)ccc1-n1cnc(C)c1 | 94 | inactive | inactive | 117 | inactive | inactive | inactive | 140 | inactive | 1960 | 32.4 | 3.85 | 8.5 |
| C=C(c1ccc(F)cc1)n1cc(Cl)cc2c(-c3ccc(-n4cnc(C)c4)c(OC)c3)nnc1-2 | 42 | inactive | inactive | 481 | inactive | inactive | inactive | – | – | – | – | – | – |
| COc1ccc(COCc2cc3c(-c4ccc(-n5cnc(C)c5)c(OC)c4)nnc-3n([C@@H](C)c3ccc(F)cc3)c2)cc1 | 110 | inactive | inactive | 182 | inactive | inactive | inactive | – | – | – | – | – | – |
| COc1cc(-c2nnc3n([C@@H](C)c4ccc(F)cc4)cc(CO)cc2-3)ccc1-n1cnc(C)c1 | 248 | inactive | inactive | 81 | inactive | inactive | inactive | – | – | – | – | – | – |
| COc1ccc(Cn2cccc3c(-c4ccc(-n5cnc(C)c5)c(OC)c4)nnc2-3)cc1 | 119 | inactive | inactive | 168 | inactive | inactive | inactive | – | – | – | – | – | – |
